Here are results for 1 compound from patent US20140309310A1 (GACHON UNIVERSITY OF INDUSTRY-ACADEMIC COOPERATION …, priority 2011, published 2014).

The test system of assay [1] is ovariectomy-induced osteoporosis (ovariectomized BALB/c mice). The assay is described as follows: High-resolution micro-CT imaging of femoral trabecular bone, trabecular thickness and separation in ovariectomized mice. Particulars: OVX mice, DDS oral 2 mg/kg. The format is in vivo, mouse. As to the method: 10-week-old BALB/c mice were subjected to ovariectomy (OVX) to make experimental animal models with osteopenia induced by OVX. […] All the animal studies were approved by the Animal Research Ethical Committee of Seoul National University. The trabecular bone of femoral region adjacent to the mouse shin was imaged by radiography using high-resolution micro-CT. The right limb of the mice was excised and stored in 10% formalin for one day. Then, the bone tissue was stored in 70% alcohol at 4° C. until use in analysis. The bone tissue was imaged by computer tomography using Skyscan 1076 Desktop X-ray Microtomograph (Skyscan, Belgium) at a tube voltage of 100 kV and an exposure current of 200 μA. For the acquired images, bone mineral density (BMD) and bone volume (BV) were measured using Skyscan CTan ver. 1.5.0 and Shortcut to ANT image analysis program (Skyscan, Belgium), and the acquired images were reconstituted into three-dimensional images. In addition, trabecular thickness (Tb. Th) and trabecular separation (Tb. Sp), which are the indices of morphological microstructures on the micro CT images, were measured, and the results of the measurement are shown in FIG. 3.

The test system is the same in assay [2]. Put plainly: Whole-body bone mineral density and bone mass by dual energy X-ray absorptiometry (DEXA) in ovariectomized mice. The format is in vivo, mouse. Particulars: DDS oral 2 mg/kg from 1 week before to 12 weeks after ovariectomy, whole body DEXA at 12 weeks, P<0.05 vs OVX. The text has this: 10-week-old BALB/c mice were subjected to ovariectomy (OVX) to make experimental animal models with osteopenia induced by OVX. […] All the animal studies were approved by the Animal Research Ethical Committee of Seoul National University.

Assay [3] has as its system osteopenia induced by aging (female C57BL/6J mice). The assay is described as follows: Whole-body bone mineral density and bone mass by DEXA in mice with osteoporosis induced by aging. In kind it is in vivo, mouse. To be noted: DDS 2 mg/kg over 12 weeks. On the procedure:
The mice were acclimated for 1 week, housed at a temperature of 21±1° C. and a humidity of 60%, and allowed access to food ad libitum.

The subject of another assay is Caenorhabditis elegans. To be noted: reported; cited from earlier work.

`Nc1ccc(S(=O)(=O)c2ccc(N)cc2)cc1` [DDS, diaminodiphenylsulfone]: in assay [1] (femoral trabecular bone), the “microstructure of the bone section (micro-CT three-dimensional image)” value was “as dense as that of the negative control group”. Also, in assay [1] (micro-CT of femoral region), the “trabecular separation (Tb. Sp)” value was “levels similar to those of the negative control group” and the “trabecular thickness (Tb. Th)” value is “levels similar to those of the negative control group”. Moreover, in assay [2], the “increase in bone mass compared to the positive control group (OVX)” value is reported as 9.13% and the “increase in bone mineral density compared to the positive control group (OVX)” value amounted to 4.09%. For the same compound, in assay [3] (female C57BL/6J), the “change in bone mass, 8-month-old mice” value is “no significant change” and the “change in bone mineral density, 8-month-old mice” value is “no significant change”. For the same compound, in assay [3] (female mice), the “increase in bone mass, 30-month-old mice” value came out at 9.6% and the “increase in bone mineral density, 30-month-old mice” value worked out at 5.11%. The “increase of life span of Caenorhabditis elegans” value in the assay with Caenorhabditis elegans is reported as 20-30%.
